Laboratory results reported in the CheMixHub viscosity set.
± gives the uncertainty stated by the source.

Test: xn = mol fraction of the nth substance listed

Cc1nc(C)n(C)c1C + O
viscosity [mPa·s], 100 kPa
Conditions | x1 = 0.0159 | x1 = 0.035 | x1 = 0.0585 | x1 = 0.0882 | x1 = 0.127
298.15 K | 1.258 ± 0.051 | 1.817 ± 0.074 | 2.65 ± 0.11 | 3.86 ± 0.16 | 5.77 ± 0.25
303.15 K | 1.125 ± 0.046 | 1.61 ± 0.066 | 2.31 ± 0.09 | 3.35 ± 0.14 | 4.91 ± 0.22
313.15 K | 0.899 ± 0.037 | 1.244 ± 0.051 | 1.733 ± 0.071 | 2.53 ± 0.1 | 3.36 ± 0.15
323.15 K | 0.756 ± 0.031 | 0.998 ± 0.041 | 1.344 ± 0.055 | 1.806 ± 0.073 | 2.44 ± 0.11

O=C([O-])CC(O)(CC(=O)[O-])C(=O)[O-].[NH3+]CCO.[NH3+]CCO.[NH3+]CCO + O
viscosity [mPa·s], 101 kPa
Conditions | x1 = 0.0053 | x1 = 0.012 | x1 = 0.02 | x1 = 0.031 | x1 = 0.046 | x1 = 0.067 | x1 = 0.16
293.15 K | 1.211 ± 0.097 | 1.575 ± 0.13 | 2.21 ± 0.18 | 3.385 ± 0.27 | 6.303 ± 0.51 | 12.36 ± 1.1 | 106.7 ± 8.8
303.15 K | 0.9345 ± 0.075 | 1.18 ± 0.095 | 1.608 ± 0.13 | 2.382 ± 0.19 | 4.312 ± 0.35 | 8.015 ± 0.66 | 66.19 ± 5.4
313.15 K | 0.7529 ± 0.06 | 0.9296 ± 0.075 | 1.227 ± 0.099 | 1.786 ± 0.14 | 3.032 ± 0.25 | 5.371 ± 0.44 | 39.23 ± 3.2
323.15 K | 0.6242 ± 0.05 | 0.7501 ± 0.06 | 0.9638 ± 0.078 | 1.351 ± 0.11 | 2.228 ± 0.18 | 3.77 ± 0.31 | 21.96 ± 1.8

O=C1CCCN1C1CCCCC1 + O
298.15 K, 100 kPa
Conditions | viscosity [mPa·s]
x1 = 0.01 | 1.219 ± 0.016
x1 = 0.0196 | 1.621 ± 0.019
x1 = 0.0303 | 2.139 ± 0.023
x1 = 0.0392 | 2.582 ± 0.026
x1 = 0.0484 | 3.059 ± 0.03
x1 = 0.0565 | 3.503 ± 0.035
x1 = 0.0683 | 4.138 ± 0.042
x1 = 0.079 | 4.749 ± 0.05
x1 = 0.0878 | 5.762 ± 0.061
x1 = 0.0982 | 5.739 ± 0.06
x1 = 0.2023 | 10.42 ± 0.13
x1 = 0.2989 | 12.86 ± 0.17
x1 = 0.3988 | 13.62 ± 0.18
x1 = 0.498 | 13.33 ± 0.18
x1 = 0.5984 | 12.65 ± 0.16
x1 = 0.7063 | 11.87 ± 0.15
x1 = 0.7985 | 11.27 ± 0.14
x1 = 0.8996 | 10.76 ± 0.13
x1 = 0.9093 | 10.71 ± 0.13
x1 = 0.9161 | 10.68 ± 0.13
x1 = 0.928 | 10.65 ± 0.13
x1 = 0.9365 | 10.61 ± 0.13
x1 = 0.9461 | 10.58 ± 0.13
x1 = 0.9574 | 10.52 ± 0.13
x1 = 0.9675 | 10.5 ± 0.13
x1 = 0.9784 | 10.46 ± 0.13
x2 = 0.0112 | 10.41 ± 0.13

O=C1OCCO1 + O
298.15 K, 101 kPa
Conditions | viscosity [mPa·s]
x1 = 0.0166 | 0.955 ± 0.009
x1 = 0.0221 | 0.968 ± 0.01
x1 = 0.0415 | 1.038 ± 0.01
x1 = 0.0635 | 1.096 ± 0.011
x1 = 0.0897 | 1.172 ± 0.011
x1 = 0.1194 | 1.253 ± 0.012
x1 = 0.1403 | 1.309 ± 0.013
x1 = 0.1625 | 1.377 ± 0.013
x1 = 0.2345 | 1.519 ± 0.015
x1 = 0.3229 | 1.647 ± 0.016
x1 = 0.3784 | 1.704 ± 0.017
x1 = 0.4412 | 1.751 ± 0.017
x1 = 0.5409 | 1.831 ± 0.018
x1 = 0.6443 | 1.898 ± 0.019

OCCOCCOCCOCCOCCOCCOCCOCCOCCO + O
viscosity [mPa·s], 100 kPa
Conditions | 293.15 K | 298.15 K | 303.15 K | 308.15 K | 313.15 K | 318.15 K | 323.15 K
x2 = 0.093 | 124.5 ± 4.9 | 93.99 ± 3 | 72.59 ± 1.6 | 57.45 ± 1 | 46.04 ± 0.8 | 37.51 ± 0.59 | 30.97 ± 0.45
x2 = 0.12 | 121.6 ± 4.6 | 92.08 ± 2.4 | 71.18 ± 1.1 | 56.4 ± 0.7 | 45.22 ± 0.56 | 36.83 ± 0.41 | 30.41 ± 0.31
x2 = 0.187 | 120.7 ± 4.6 | 91.49 ± 2.4 | 70.11 ± 1.1 | 55.25 ± 0.66 | 44.27 ± 0.54 | 36.03 ± 0.4 | 29.76 ± 0.3
x2 = 0.256 | 117.4 ± 4.5 | 88.73 ± 2.2 | 68.34 ± 0.97 | 54.28 ± 0.58 | 43.47 ± 0.48 | 35.36 ± 0.34 | 29.19 ± 0.25

CC1CCCO1 (stereo unspecified) + O=C1CCCC1
298.15 K, 101 kPa
Conditions | viscosity [mPa·s]
x1 = 0.0212 | 1.103 ± 0.0079
x1 = 0.0637 | 1.061 ± 0.0077
x1 = 0.1277 | 1.001 ± 0.0075
x1 = 0.1917 | 0.944 ± 0.0073
x1 = 0.2563 | 0.89 ± 0.0071
x1 = 0.3212 | 0.84 ± 0.0069
x1 = 0.3856 | 0.792 ± 0.0067
x1 = 0.4507 | 0.747 ± 0.0065
x1 = 0.5157 | 0.705 ± 0.0064
x1 = 0.5812 | 0.665 ± 0.0062
x1 = 0.6466 | 0.628 ± 0.0061
x1 = 0.7069 | 0.596 ± 0.006
x1 = 0.7785 | 0.56 ± 0.0059
x1 = 0.8445 | 0.529 ± 0.0058
x1 = 0.9107 | 0.5 ± 0.0056
x1 = 0.9775 | 0.472 ± 0.0055

O=C1CCCN1C1CCCCC1 + O=C1CCCN1
298.15 K, 100 kPa
Conditions | viscosity [mPa·s]
x1 = 0.0107 | 13.4 ± 0.18
x2 = 0.0201 | 10.5 ± 0.13
x2 = 0.0289 | 10.56 ± 0.13
x2 = 0.0403 | 10.66 ± 0.13
x2 = 0.0491 | 10.72 ± 0.13
x2 = 0.0694 | 10.86 ± 0.14
x2 = 0.08 | 10.94 ± 0.14
x2 = 0.0913 | 11.02 ± 0.14
x2 = 0.0973 | 11.06 ± 0.14
x2 = 0.1019 | 11.11 ± 0.14
x2 = 0.1982 | 11.73 ± 0.15
x2 = 0.2954 | 12.31 ± 0.16
x2 = 0.3091 | 12.44 ± 0.16
x2 = 0.389 | 12.77 ± 0.17
x2 = 0.4916 | 13.18 ± 0.17
x2 = 0.602 | 13.5 ± 0.18
x2 = 0.7053 | 13.64 ± 0.18
x2 = 0.8042 | 13.66 ± 0.18
x2 = 0.902 | 13.66 ± 0.18
x2 = 0.9031 | 13.63 ± 0.18
x2 = 0.9108 | 13.62 ± 0.18
x2 = 0.9153 | 13.63 ± 0.18
x2 = 0.9306 | 13.59 ± 0.18
x2 = 0.9503 | 13.56 ± 0.18
x2 = 0.9597 | 13.54 ± 0.18
x2 = 0.9696 | 13.49 ± 0.18
x2 = 0.979 | 13.45 ± 0.18

O=C(O)CO + O=C(O)[C@@H]1CCCN1
323 K, 100 kPa
Conditions | viscosity [mPa·s]
x2 = 0.25 | 480
x2 = 0.338 | 1340
x2 = 0.504 | 8080

ClCC(Cl)Cl + O=S1(=O)CCCC1
viscosity [mPa·s], 100 kPa
Conditions | x2 = 0.0188 | x2 = 0.1215 | x2 = 0.2323 | x2 = 0.3466 | x2 = 0.4454 | x2 = 0.5548 | x2 = 0.6864 | x2 = 0.8249 | x2 = 0.9723
303.15 K | 1.202 ± 0.031 | 2.163 ± 0.053 | 3.186 ± 0.076 | 4.237 ± 0.099 | 5.137 ± 0.12 | 6.131 ± 0.13 | 7.307 ± 0.15 | 8.528 ± 0.17 | 9.798 ± 0.19
308.15 K | 1.108 ± 0.029 | 1.937 ± 0.048 | 2.834 ± 0.068 | 3.752 ± 0.088 | 4.539 ± 0.11 | 5.402 ± 0.12 | 6.428 ± 0.14 | 7.489 ± 0.15 | 8.588 ± 0.17
313.15 K | 1.024 ± 0.027 | 1.754 ± 0.044 | 2.548 ± 0.062 | 3.369 ± 0.08 | 4.069 ± 0.095 | 4.831 ± 0.11 | 5.738 ± 0.13 | 6.671 ± 0.14 | 7.649 ± 0.15

CC(C)CO + OCC(O)CO
viscosity [mPa·s], 101.33 kPa
Conditions | x2 = 0.1006 | x2 = 0.2008 | x2 = 0.2991 | x2 = 0.3991 | x2 = 0.5003 | x2 = 0.6005 | x2 = 0.7001 | x2 = 0.7997 | x2 = 0.8994
298.15 K | 4.625 ± 0.47 | 7.894 ± 0.81 | 14.39 ± 1.5 | 26.58 ± 2.8 | 56.03 ± 5.9 | 118.3 ± 12 | 233.2 ± 25 | 395.9 ± 42 | 595.4 ± 64
308.15 K | 3.192 ± 0.33 | 5.58 ± 0.57 | 9.274 ± 0.95 | 15.86 ± 1.6 | 30.35 ± 3.2 | 59.4 ± 6.2 | 110.6 ± 11 | 179.4 ± 19 | 269.1 ± 28
318.15 K | 2.33 ± 0.24 | 3.788 ± 0.39 | 6.116 ± 0.62 | 9.794 ± 1 | 17.19 ± 1.8 | 32.13 ± 3.3 | 55.06 ± 5.6 | 86.54 ± 8.8 | 120.9 ± 12

O=C(O)CO + OC[C@@H](O)[C@H](O)[C@@H](O)CO
101.33 kPa, x2 = 0.25
Conditions | viscosity [mPa·s]
303.15 K | 937 ± 60
313.15 K | 446.3 ± 22
323.15 K | 208.9 ± 6.7

CCCCCOC(C)=O + OCc1ccccc1
Conditions | viscosity [mPa·s]
298.15 K, 101 kPa, x1 = 0.5 | 1.035 ± 0.01
